Values of other authors, collected in patent publication US9669099B2, “Pine bark extract and black pepper essential oil with anti-inflammatory and anti-arthritic action and method of preparing same” (priority 2015, dated 2017).

Legend:
leukotriene production = settings: leukotriene as a mediator of inflammation
[1] = system: TNF-α (Tumor Necrosis Factor alpha); settings: fibroblast cultures, all animals assessed

SMILES	inhibitor of leukotriene production (leukotriene production)	other results
C=CC(C)(O)CCC=C(C)C (racemic) [(±)-linalool]	effective as an inhibitor	
CC1=C[C@@H](O)[C@@H]2C[C@H]1C2(C)C (relative stereo) [(+)-cis-verbenol]	effective as an inhibitor	
C=C(C)C1CC=C(C)CC1 (single isomer, unassigned; (+)) [(+)-limonene]	effective as an inhibitor	
CC1CCC(C(C)C)C(O)C1 (single isomer, unassigned; (-)) [(−)-menthol]	effective as an inhibitor	
CC1=CC[C@@H]2C[C@H]1C2(C)C [(+)-α-pinene]	effective as an inhibitor	
CC1=CC[C@H]2C[C@@H]1C2(C)C [(−)-α-pinene]	effective as an inhibitor	
C/C1=C\CC/C(C)=C/CC(C)(C)/C=C/C1 [Alpha-humulene]		inhibition of LPS-induced neutrophil migration (neutrophil migration): inhibit; prevention of production of proinflammatory cytokines TNF-a and IL-1b (TNF-a and IL-1b): ability to prevent; inhibition of LPS-induced NF-kB activation (NF-kB activation): inhibit; prevention of in vivo up-regulation of kinin B1 receptors (kinin B1 receptors): ability to prevent
C=C1CC/C=C(\C)CC[C@@H]2[C@@H]1CC2(C)C [Beta-caryophyllene]		inhibition of LPS-induced neutrophil migration (neutrophil migration): inhibit; inhibition of LPS-induced NF-kB activation (NF-kB activation): inhibit
CC(C)=CCCC(C)=CC=O [citral]	effective as an inhibitor	
CC(C)=CCC/C(C)=C/CO [geraniol]	effective as an inhibitor	
C=C(C)[C@H]1CC=C(C)CC1 [limonene]		inhibition of TNF-α [1]: inhibition of TNF-α
CC1=CCCC(C)(C)C1C=O (stereo not drawn) [α-cyclocitral]	effective as an inhibitor	
CC1=CC=C(C(C)C)CC1 [α-terpinene]	effective as an inhibitor	
C=CC(=C)CCC=C(C)C [β-myrcene]	effective as an inhibitor	
CC1=CCC(C(C)C)=CC1 [γ-terpinene]	effective as an inhibitor	
